The values below come from ChEMBL document CHEMBL1201862, “PubChem BioAssay data set” (2004).

Test systems include HOP-62; LOX IMVI; SK-MEL-28; UACC-62; CCRF-CEM; SW-620; DU-145; HT-29; SK-MEL-5; KM12; RPMI-8226; SF-268; EKVX; HOP-92; MDA-N; NCI-H460; SR; Malme-3M; MDA-MB-231; CAKI-1.
Holding throughout (assay): NCI anticancer screen, dose series, 48 h

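These data come from cells grown in 96-well plates and exposed to compound for 48 hours at five concentrations. GI50 marks 50% less growth.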 Active and inactive are the calls of the source. Rule as the data show it: active = GI50 up to about 1.1 µM and inactive = higher.

With `C/C(=N/NC(=S)N1CCCCCC1)c1cccc(/C(C)=N\NC(=S)N2CCCCCC2)n1`, the GI50 is 1.89 µM (inactive) in the assay with HOP-62; 1.72 µM (inactive) in the assay with LOX IMVI; 2.3 µM (inactive) in the assay with SK-MEL-28; 2.38 µM (inactive) in the assay with UACC-62; 2.67 µM (inactive) in the assay on CCRF-CEM; 1.11 µM (active) in the assay on SW-620. Further, the GI50 in the assay on DU-145 was 2.29 µM (inactive); with HT-29, 2.16 µM (inactive); in the assay with SK-MEL-5, 1.42 µM (inactive); in the assay with KM12, 1.63 µM (inactive); with RPMI-8226, 1.91 µM (inactive); with SF-268, 2.51 µM (inactive). Besides, the GI50 with EKVX was 3.13 µM (inactive); in the assay with HOP-92 it was 1.7 µM (inactive); in the assay on MDA-N, 2.23 µM (inactive); in the assay on NCI-H460, 2.55 µM (inactive); in the assay on SR it was 2.38 µM (inactive); with Malme-3M, 0.938 µM (active). Also, in the assay with MDA-MB-231, the GI50 was 1.7 µM (inactive).
In the case of `O=[N+]([O-])c1cccc([N+](=O)[O-])c1S(=O)(=O)c1ccccc1`, the GI50 was 19.9 µM (inactive) with HOP-62; 1.84 µM (inactive) with LOX IMVI; 4.16 µM (inactive) with SK-MEL-28; < 0.01 µM (active) in the assay on CCRF-CEM; 2.55 µM (inactive) in the assay on SW-620; 6.05 µM (inactive) with DU-145. In addition, the GI50 with HT-29 is 7.67 µM (inactive); with SK-MEL-5, 14.1 µM (inactive); in the assay on KM12 it was 16.1 µM (inactive); in the assay with CAKI-1, 2.04 µM (inactive); with RPMI-8226, 1.46 µM (inactive); with SF-268, 12.2 µM (inactive). Moreover, the GI50 in the assay on EKVX is 21.2 µM (inactive); with HOP-92 it was 3.76 µM (inactive); in the assay with MDA-N, 5.51 µM (inactive); in the assay on NCI-H460 it was 21.7 µM (inactive); in the assay on SR, 1.63 µM (inactive); in the assay on Malme-3M it was 2.28 µM (inactive). Further, in the assay on MDA-MB-231, the GI50 was 18.2 µM (inactive).
Turning to `Cc1ccc2c(c1)CC1(Cc3cccc(C)c3C1=O)C2=O` (stereo not drawn), the GI50 in the assay with HOP-62 is > 100 µM (inactive); in the assay on LOX IMVI, > 10 µM (inactive); with SK-MEL-28, > 100 µM (inactive); with UACC-62, 48.4 µM (inactive); with CCRF-CEM, 70.1 µM (inactive); with SW-620, > 100 µM (inactive). The GI50 in the assay on DU-145 was > 100 µM (inactive); in the assay on HT-29, 51.3 µM (inactive); with SK-MEL-5, 32.3 µM (inactive); in the assay on RPMI-8226, > 100 µM (inactive); in the assay with SF-268 it was > 100 µM (inactive); in the assay on EKVX it was > 100 µM (inactive). The GI50 in the assay with HOP-92 is 50.7 µM (inactive); with MDA-N, > 10 µM (inactive); in the assay on NCI-H460 it was 69.7 µM (inactive); in the assay on SR, 79.8 µM (inactive); with Malme-3M, 85.5 µM (inactive); in the assay on MDA-MB-231 it was 19.4 µM (inactive).
Turning to `CC1(CF)SCc2nc3ccccc3n21` (stereo not drawn), the GI50 with HOP-62, in the assay with LOX IMVI, with SK-MEL-28, with UACC-62, in the assay on SW-620 and in the assay with DU-145 was > 100 µM (inactive) each time. Besides, the GI50 with HT-29, in the assay on SK-MEL-5, in the assay on KM12, with CAKI-1, with RPMI-8226 and in the assay on SF-268 was > 100 µM (inactive) each time. The GI50 in the assay on EKVX, in the assay on HOP-92, in the assay with MDA-N, with NCI-H460, in the assay with SR and with Malme-3M was > 100 µM (inactive) throughout. Moreover, the GI50 in the assay on MDA-MB-231 was > 100 µM (inactive).
On to `COC1/C=C/C(C)C(C(C)C(OC)C(C)CCC(=O)C(C)C(CC(=O)O)OC)OC(=O)/C=C/C=C(\C)CC(OC)C(OC)C2=CC(=O)O[C@@H](C(C)C(OC)CC(OC)/C=C/C(C)C(O)C1)[C@H]2O` (stereo partly drawn), for which the GI50 is 0.121 µM (active) in the assay on HOP-62; 0.0188 µM (active) in the assay with LOX IMVI; 0.0212 µM (active) in the assay with SK-MEL-28; 0.0479 µM (active) in the assay with UACC-62; 0.0484 µM (active) in the assay with CCRF-CEM; 0.0242 µM (active) with SW-620. Further, the GI50 in the assay with DU-145 was 0.053 µM (active); in the assay with HT-29, 0.026 µM (active); in the assay with SK-MEL-5, 0.0536 µM (active); in the assay with KM12, 0.0512 µM (active); in the assay on CAKI-1, 0.033 µM (active); with RPMI-8226 it was 0.0959 µM (active). The GI50 with SF-268 is 0.046 µM (active); with EKVX, 0.0474 µM (active); in the assay with HOP-92 it was 0.0339 µM (active); in the assay with MDA-N it was 0.0785 µM (active); with NCI-H460, 0.0311 µM (active); in the assay with SR, 0.0622 µM (active). Also, the GI50 in the assay with MDA-MB-231 was 0.083 µM (active).
Consider `Cc1c2c(n(CC(c3ccccc3)c3ccccc3)c1C)NN=C(C#N)S2(=O)=O`, for which the GI50 is > 100 µM (inactive) in the assay on HOP-62; > 100 µM (inactive) in the assay with LOX IMVI; > 100 µM (inactive) with SK-MEL-28; 97.7 µM (inactive) in the assay on UACC-62; > 100 µM (inactive) with SW-620; > 100 µM (inactive) in the assay on DU-145. The GI50 in the assay on HT-29 is > 100 µM (inactive); in the assay on SK-MEL-5 it was > 100 µM (inactive); in the assay with KM12, 66.2 µM (inactive); in the assay on CAKI-1, > 100 µM (inactive); with RPMI-8226, > 100 µM (inactive); in the assay with SF-268, 64.1 µM (inactive). The GI50 is > 100 µM (inactive) in the assay with EKVX; > 100 µM (inactive) with HOP-92; > 100 µM (inactive) with MDA-N; > 100 µM (inactive) with NCI-H460; 35.2 µM (inactive) in the assay with SR; 33.9 µM (inactive) in the assay on MDA-MB-231.
Take `Cc1cc(C)n(C(=O)CSc2nc3ccc(I)cc3c(=O)n2Cc2ccccc2)n1`: the GI50 in the assay on HOP-62 is 31.9 µM (inactive); in the assay with LOX IMVI, > 100 µM (inactive); in the assay with SK-MEL-28 it was > 100 µM (inactive); with UACC-62, 80.5 µM (inactive); with CCRF-CEM, 67.1 µM (inactive); in the assay on SW-620, 87.1 µM (inactive). In addition, the GI50 in the assay with DU-145 is 42 µM (inactive); with HT-29, > 100 µM (inactive); with SK-MEL-5, 25.2 µM (inactive); in the assay with KM12, 50.2 µM (inactive); in the assay on CAKI-1 it was 4.63 µM (inactive); with RPMI-8226 it was > 100 µM (inactive). The GI50 is 17.3 µM (inactive) in the assay with SF-268; 24 µM (inactive) in the assay with EKVX; 15.5 µM (inactive) in the assay with HOP-92; > 100 µM (inactive) in the assay on MDA-N; 36.4 µM (inactive) with NCI-H460; > 100 µM (inactive) with SR. Further, the GI50 in the assay with MDA-MB-231 is 23.3 µM (inactive).
As to `OC[C@]1(n2nc3ccccc3n2)OC[C@@H]1c1ccccc1`, the GI50 with HOP-62 was 39.3 µM (inactive); in the assay on LOX IMVI, 42.5 µM (inactive); in the assay on SK-MEL-28, 28.2 µM (inactive); in the assay with UACC-62, 43.3 µM (inactive); in the assay with CCRF-CEM, 36.1 µM (inactive); in the assay with DU-145, 27.5 µM (inactive). Further, the GI50 in the assay on HT-29 is 29.6 µM (inactive); in the assay with SK-MEL-5 it was 83.2 µM (inactive); in the assay on KM12, 45.6 µM (inactive); with CAKI-1 it was 27.2 µM (inactive); in the assay with RPMI-8226, 26.9 µM (inactive); with SF-268, 30.8 µM (inactive). Also, the GI50 is > 100 µM (inactive) in the assay with EKVX; 44.6 µM (inactive) in the assay with HOP-92; 53.7 µM (inactive) with MDA-N; 76.2 µM (inactive) in the assay on NCI-H460; 32.2 µM (inactive) with SR; 19.4 µM (inactive) in the assay on Malme-3M. Further, in the assay with MDA-MB-231, the GI50 is 74.3 µM (inactive).
As to `COC(=O)C12OC3CO[Si](C(C)C)(C(C)C)O[Si](C(C)C)(C(C)C)OC3C1Oc1nc(=O)ccn12` (stereo not drawn), the GI50 was 18.1 µM (inactive) in the assay on HOP-62; 17.4 µM (inactive) with LOX IMVI; 16.7 µM (inactive) in the assay on SK-MEL-28; 14.3 µM (inactive) in the assay on UACC-62; 17.3 µM (inactive) in the assay on CCRF-CEM; 16 µM (inactive) with SW-620. For the same compound, the GI50 with DU-145 is 18.5 µM (inactive); with HT-29, 15.4 µM (inactive); in the assay with SK-MEL-5 it was 16.2 µM (inactive); in the assay on KM12, 15.7 µM (inactive); in the assay with CAKI-1, 17.7 µM (inactive); with RPMI-8226, 13.7 µM (inactive). Also, the GI50 in the assay on SF-268 is 12 µM (inactive); with EKVX it was 16.7 µM (inactive); with HOP-92, 14.3 µM (inactive); with MDA-N, 18 µM (inactive); in the assay with SR it was 15 µM (inactive); with Malme-3M it was 14.8 µM (inactive). In the assay with MDA-MB-231, the GI50 is 15.5 µM (inactive).
For the compound `Oc1ccc(-c2nc3ccccc3s2)cc1`, the GI50 is 37 µM (inactive) with HOP-62; 21.4 µM (inactive) in the assay on LOX IMVI; 53.3 µM (inactive) with SK-MEL-28; 32.4 µM (inactive) in the assay with UACC-62; 26.2 µM (inactive) in the assay on CCRF-CEM; 65.5 µM (inactive) in the assay on SW-620. Moreover, the GI50 with DU-145 is 33.1 µM (inactive); in the assay on HT-29, 42.3 µM (inactive); in the assay with KM12, 21.1 µM (inactive); in the assay with CAKI-1, 29.2 µM (inactive); in the assay with RPMI-8226 it was 27.1 µM (inactive); with SF-268, 31.5 µM (inactive). Also, the GI50 in the assay on EKVX is 21.5 µM (inactive); in the assay on HOP-92, 35.9 µM (inactive); in the assay with MDA-N it was 32.9 µM (inactive); in the assay on NCI-H460, 38.1 µM (inactive); with SR, 32.7 µM (inactive); in the assay with Malme-3M it was 47.3 µM (inactive). In addition, the GI50 with MDA-MB-231 was 29.2 µM (inactive).
